Laboratory results from patent US20100305098A1, “METHODS OF USE” (priority 2007, published 2010).

Tests used:
[1] = target: T1, Leukotriene, BLT (LTB4) (Homo sapiens, UniProt Q15722); assay: Competitive radioligand binding (MDS Pharma)
T1 construct: purchased MDS Pharma (outsourced assay) 250510

[2] = target: T2, Leukotriene, Cysteinyl CysLT1 (Homo sapiens, UniProt Q9Y271); assay: Competitive radioligand binding (MDS Pharma)
T2 construct: purchased MDS Pharma (outsourced assay)

[3] = target: T3, Prostanoid CRTH2 (Homo sapiens, UniProt Q9Y5Y4); assay: Competitive radioligand binding (MDS Pharma)
T3 construct: purchased MDS Pharma (outsourced assay)
T3 sequence (Q9Y5Y4 whole entry): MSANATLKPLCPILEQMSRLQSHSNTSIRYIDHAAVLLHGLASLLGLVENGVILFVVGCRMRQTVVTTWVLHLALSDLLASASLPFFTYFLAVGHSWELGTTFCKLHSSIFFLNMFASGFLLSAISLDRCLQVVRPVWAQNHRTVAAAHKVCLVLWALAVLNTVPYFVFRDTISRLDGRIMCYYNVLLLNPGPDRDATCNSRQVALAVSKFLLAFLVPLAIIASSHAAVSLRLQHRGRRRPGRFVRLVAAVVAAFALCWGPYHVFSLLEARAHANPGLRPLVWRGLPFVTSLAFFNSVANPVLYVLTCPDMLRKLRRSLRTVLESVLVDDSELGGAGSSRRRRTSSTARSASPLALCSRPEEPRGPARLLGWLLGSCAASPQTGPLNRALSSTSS

[4] = target: T4, Prostanoid EP4 (Homo sapiens, UniProt P35408); assay: Competitive radioligand binding (MDS Pharma)
T4 construct: host or cells: EP4-expressing membrane preparations
T4 sequence (P35408 whole entry): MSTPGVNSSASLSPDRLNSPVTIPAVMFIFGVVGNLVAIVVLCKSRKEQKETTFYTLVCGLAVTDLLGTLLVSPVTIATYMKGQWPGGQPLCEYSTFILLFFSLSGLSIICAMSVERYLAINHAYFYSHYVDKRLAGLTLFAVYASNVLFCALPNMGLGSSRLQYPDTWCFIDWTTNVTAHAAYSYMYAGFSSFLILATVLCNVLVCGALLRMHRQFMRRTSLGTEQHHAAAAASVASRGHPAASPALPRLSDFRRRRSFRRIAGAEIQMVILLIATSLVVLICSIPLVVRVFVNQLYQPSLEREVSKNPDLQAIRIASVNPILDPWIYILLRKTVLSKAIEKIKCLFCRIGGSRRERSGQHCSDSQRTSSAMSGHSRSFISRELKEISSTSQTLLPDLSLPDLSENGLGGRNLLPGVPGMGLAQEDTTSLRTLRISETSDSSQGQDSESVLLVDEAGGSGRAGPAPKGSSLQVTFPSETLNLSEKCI
Experimental: Radioligand EP4 binding. The radioligand EP4 binding assay measures displacement of radiolabelled PGE2 from EP4-expressing membrane preparations. Radioligand EP4 binding assay kit was purchased from Millipore, and the assay was performed according to instructions of the manufacture.

[5] = target: T5, 5-HT1A (Homo sapiens, UniProt P08908); assay: FLIPR functional screen; assay type: cell-based; conditions: antagonist mode
T5 construct: purchased Millipore (outsourced screen)

[6] = target: T6, 5-HT1B (Homo sapiens, UniProt P28222); assay: FLIPR functional screen; assay type: cell-based; conditions: antagonist mode
T6 construct: purchased Millipore (outsourced screen)

[7] = target: T7, A3 (Homo sapiens, UniProt P0DMS8); assay: FLIPR functional screen; assay type: cell-based; conditions: antagonist mode
T7 construct: purchased Millipore (outsourced screen)

[8] = target: T8, ADRA1A (Homo sapiens, UniProt P35348); assay: FLIPR functional screen; assay type: cell-based; conditions: antagonist mode
T8 construct: purchased Millipore (outsourced screen)
T8 sequence (P35348 whole entry): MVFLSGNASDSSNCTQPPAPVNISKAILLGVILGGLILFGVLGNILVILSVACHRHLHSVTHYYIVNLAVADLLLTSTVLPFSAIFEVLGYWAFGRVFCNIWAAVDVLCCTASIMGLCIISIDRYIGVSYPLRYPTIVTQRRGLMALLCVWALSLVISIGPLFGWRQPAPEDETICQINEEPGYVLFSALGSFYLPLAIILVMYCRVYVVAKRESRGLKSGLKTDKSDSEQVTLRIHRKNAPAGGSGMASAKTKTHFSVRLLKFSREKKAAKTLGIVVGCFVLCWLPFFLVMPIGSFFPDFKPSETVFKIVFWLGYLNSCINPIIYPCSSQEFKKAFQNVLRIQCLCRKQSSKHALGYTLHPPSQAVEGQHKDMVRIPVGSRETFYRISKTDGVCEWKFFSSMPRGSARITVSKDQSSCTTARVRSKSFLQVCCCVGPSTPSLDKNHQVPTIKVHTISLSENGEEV

[9] = target: T9, BB1 (Homo sapiens, UniProt P28336); assay: FLIPR functional screen; assay type: cell-based; conditions: antagonist mode
T9 construct: Millipore

[10] = target: T10, BB2 (Homo sapiens, UniProt P30550); assay: FLIPR functional screen; assay type: cell-based; conditions: antagonist mode
T10 construct: Millipore

[11] = target: T11, BB3 (Homo sapiens, UniProt P32247); assay: FLIPR functional screen; assay type: cell-based; conditions: antagonist mode
T11 construct: Millipore
T11 sequence (P32247 whole entry): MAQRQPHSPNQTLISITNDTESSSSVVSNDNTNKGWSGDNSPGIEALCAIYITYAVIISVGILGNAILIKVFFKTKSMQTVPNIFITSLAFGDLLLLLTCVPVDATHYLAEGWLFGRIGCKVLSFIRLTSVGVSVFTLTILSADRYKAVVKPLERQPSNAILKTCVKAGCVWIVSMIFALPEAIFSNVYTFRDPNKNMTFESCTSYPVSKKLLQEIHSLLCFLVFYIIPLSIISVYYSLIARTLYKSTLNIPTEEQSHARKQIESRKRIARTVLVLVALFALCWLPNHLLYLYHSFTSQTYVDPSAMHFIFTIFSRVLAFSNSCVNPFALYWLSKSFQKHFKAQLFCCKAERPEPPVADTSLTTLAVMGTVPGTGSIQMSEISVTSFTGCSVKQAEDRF

[12] = target: T12, RDKR2 (Homo sapiens, UniProt P30411); assay: FLIPR functional screen; assay type: cell-based; conditions: antagonist mode
T12 construct: Millipore

[13] = target: T13, BLT1 (Homo sapiens, UniProt Q15722); assay: FLIPR functional screen; assay type: cell-based; conditions: antagonist mode
T13 construct: Millipore
T13 sequence (Q15722 whole entry, species assumed): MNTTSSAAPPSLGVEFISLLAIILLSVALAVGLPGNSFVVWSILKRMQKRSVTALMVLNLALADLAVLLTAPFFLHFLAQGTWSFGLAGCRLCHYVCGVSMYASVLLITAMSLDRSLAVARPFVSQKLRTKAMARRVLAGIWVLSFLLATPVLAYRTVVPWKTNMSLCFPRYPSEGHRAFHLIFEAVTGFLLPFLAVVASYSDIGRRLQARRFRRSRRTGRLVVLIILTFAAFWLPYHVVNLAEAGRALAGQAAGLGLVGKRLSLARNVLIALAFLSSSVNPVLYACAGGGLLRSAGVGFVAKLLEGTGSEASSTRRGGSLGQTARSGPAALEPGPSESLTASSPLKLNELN

[14] = target: T14, C5AR (Homo sapiens, UniProt P21730); assay: FLIPR functional screen; assay type: cell-based; conditions: antagonist mode
T14 construct: Millipore
T14 sequence (P21730 whole entry, species assumed): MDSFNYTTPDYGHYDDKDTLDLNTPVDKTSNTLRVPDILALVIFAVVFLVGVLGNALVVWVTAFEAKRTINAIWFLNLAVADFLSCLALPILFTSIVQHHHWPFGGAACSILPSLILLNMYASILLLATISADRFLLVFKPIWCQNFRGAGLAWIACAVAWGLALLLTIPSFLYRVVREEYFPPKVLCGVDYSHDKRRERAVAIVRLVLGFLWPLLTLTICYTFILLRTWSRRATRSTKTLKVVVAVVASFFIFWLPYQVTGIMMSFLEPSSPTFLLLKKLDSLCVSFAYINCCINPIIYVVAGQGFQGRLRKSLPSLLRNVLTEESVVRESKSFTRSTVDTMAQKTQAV

[15] = target: T15, CCR1 (Homo sapiens, UniProt P32246); assay: FLIPR functional screen; assay type: cell-based; conditions: antagonist mode
T15 construct: Millipore

[16] = target: T16, CCR3 (Homo sapiens, UniProt P51677); assay: FLIPR functional screen; assay type: cell-based; conditions: antagonist mode
T16 construct: Millipore

[17] = target: T17, CCR6 (Homo sapiens, UniProt P51684); assay: FLIPR functional screen; assay type: cell-based; conditions: antagonist mode
T17 construct: Millipore

[18] = target: T18, CHEMR23 (Homo sapiens, UniProt Q99788); assay: FLIPR functional screen; assay type: cell-based; conditions: antagonist mode
T18 construct: Millipore

[19] = target: T19, CXCR4 (Homo sapiens, UniProt P61073); assay: FLIPR functional screen; assay type: cell-based; conditions: antagonist mode
T19 construct: Millipore

[20] = target: T20, EP1 (Homo sapiens, UniProt P34995); assay: FLIPR functional screen; assay type: cell-based; conditions: antagonist mode
T20 construct: Millipore

[21] = target: T21, EP2 (Homo sapiens, UniProt P43116); assay: FLIPR functional screen; assay type: cell-based; conditions: antagonist mode
T21 construct: Millipore

[22] = target: T22, ETB (Homo sapiens, UniProt P24530); assay: FLIPR functional screen; assay type: cell-based; conditions: antagonist mode
T22 construct: Millipore

[23] = target: T23, GAL1 (Homo sapiens, UniProt P47211); assay: FLIPR functional screen; assay type: cell-based; conditions: antagonist mode
T23 construct: Millipore

[24] = target: T24, GAL2 (Homo sapiens, UniProt O43603); assay: FLIPR functional screen; assay type: cell-based; conditions: antagonist mode
T24 construct: Millipore

[25] = target: T25, GCGR (Homo sapiens, UniProt P47871); assay: FLIPR functional screen; assay type: cell-based; conditions: antagonist mode
T25 construct: Millipore

[26] = target: T26, GLP1 (Homo sapiens, UniProt P43220); assay: FLIPR functional screen; assay type: cell-based; conditions: antagonist mode
T26 construct: Millipore

[27] = target: T27, GNRHR (Homo sapiens, UniProt P30968); assay: FLIPR functional screen; assay type: cell-based; conditions: antagonist mode
T27 construct: Millipore
T27 sequence (P30968 whole entry, species assumed): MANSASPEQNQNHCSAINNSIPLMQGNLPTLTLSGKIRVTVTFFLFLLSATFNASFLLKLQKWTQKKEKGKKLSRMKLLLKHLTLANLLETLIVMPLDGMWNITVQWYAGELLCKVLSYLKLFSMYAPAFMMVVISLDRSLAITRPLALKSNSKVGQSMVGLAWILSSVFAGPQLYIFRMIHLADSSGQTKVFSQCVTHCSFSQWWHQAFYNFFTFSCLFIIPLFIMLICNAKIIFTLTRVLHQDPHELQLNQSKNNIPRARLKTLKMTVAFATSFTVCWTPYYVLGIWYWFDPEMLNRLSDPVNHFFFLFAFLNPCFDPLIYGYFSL

[28] = target: T28, GPR43 (Homo sapiens, UniProt O15552); assay: FLIPR functional screen; assay type: cell-based; conditions: antagonist mode
T28 construct: Millipore

[29] = target: T29, M2 (Homo sapiens, UniProt P08172); assay: FLIPR functional screen; assay type: cell-based; conditions: antagonist mode
T29 construct: Millipore
T29 sequence (P08172 whole entry): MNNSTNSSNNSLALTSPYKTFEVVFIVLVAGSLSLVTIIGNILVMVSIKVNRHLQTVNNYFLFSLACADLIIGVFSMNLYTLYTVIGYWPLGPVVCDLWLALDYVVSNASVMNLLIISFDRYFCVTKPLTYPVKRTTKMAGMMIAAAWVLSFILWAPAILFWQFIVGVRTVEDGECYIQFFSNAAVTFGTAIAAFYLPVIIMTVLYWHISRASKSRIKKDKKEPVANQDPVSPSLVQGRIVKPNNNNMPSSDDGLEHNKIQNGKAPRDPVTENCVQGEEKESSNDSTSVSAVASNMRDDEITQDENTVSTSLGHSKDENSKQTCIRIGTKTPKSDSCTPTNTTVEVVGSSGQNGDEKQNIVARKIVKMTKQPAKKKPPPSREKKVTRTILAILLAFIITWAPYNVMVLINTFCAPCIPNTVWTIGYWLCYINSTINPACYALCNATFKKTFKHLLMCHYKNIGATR

[30] = target: T30, M4 (Homo sapiens, UniProt P08173); assay: FLIPR functional screen; assay type: cell-based; conditions: antagonist mode
T30 construct: Millipore
T30 sequence (P08173 whole entry): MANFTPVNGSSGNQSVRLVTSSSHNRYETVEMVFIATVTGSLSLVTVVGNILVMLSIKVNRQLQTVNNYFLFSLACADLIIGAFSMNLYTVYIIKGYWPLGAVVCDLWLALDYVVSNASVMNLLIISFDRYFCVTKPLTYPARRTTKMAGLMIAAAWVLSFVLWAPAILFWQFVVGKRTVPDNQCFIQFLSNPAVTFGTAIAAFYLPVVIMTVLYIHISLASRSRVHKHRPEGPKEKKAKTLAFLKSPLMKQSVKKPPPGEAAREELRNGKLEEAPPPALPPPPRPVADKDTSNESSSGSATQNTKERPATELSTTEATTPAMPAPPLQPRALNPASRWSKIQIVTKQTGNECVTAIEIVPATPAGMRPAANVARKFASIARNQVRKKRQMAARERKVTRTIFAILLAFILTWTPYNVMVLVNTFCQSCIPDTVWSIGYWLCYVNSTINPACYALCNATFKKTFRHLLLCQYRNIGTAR

[31] = target: T31, NK1 (Homo sapiens, UniProt P25103); assay: FLIPR functional screen; assay type: cell-based; conditions: antagonist mode
T31 construct: Millipore

[32] = target: T32, NOP (Homo sapiens, UniProt P41146); assay: FLIPR functional screen; assay type: cell-based; conditions: antagonist mode
T32 construct: Millipore

[33] = target: T33, OX2 (Homo sapiens, UniProt O43614); assay: FLIPR functional screen; assay type: cell-based; conditions: antagonist mode
T33 construct: Millipore

[34] = target: T34, PRP (Homo sapiens, UniProt P49683); assay: FLIPR functional screen; assay type: cell-based; conditions: antagonist mode
T34 construct: Millipore

[35] = target: T35, SST4 (Homo sapiens, UniProt P31391); assay: FLIPR functional screen; assay type: cell-based; conditions: antagonist mode
T35 construct: Millipore

[36] = target: T36, SST5 (Homo sapiens, UniProt P35346); assay: FLIPR functional screen; assay type: cell-based; conditions: antagonist mode
T36 construct: Millipore
T36 sequence (P35346 whole entry, species assumed): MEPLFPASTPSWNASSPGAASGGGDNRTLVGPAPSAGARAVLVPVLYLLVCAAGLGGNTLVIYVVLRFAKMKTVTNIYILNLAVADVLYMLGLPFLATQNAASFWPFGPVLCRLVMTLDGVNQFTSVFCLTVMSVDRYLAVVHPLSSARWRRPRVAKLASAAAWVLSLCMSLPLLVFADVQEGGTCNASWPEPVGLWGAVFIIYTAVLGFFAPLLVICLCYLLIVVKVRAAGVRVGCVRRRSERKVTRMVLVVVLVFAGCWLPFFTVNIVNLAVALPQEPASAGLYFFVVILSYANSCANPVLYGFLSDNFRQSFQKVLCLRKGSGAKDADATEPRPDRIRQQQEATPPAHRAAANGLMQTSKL

[37] = target: T37, V1A (Homo sapiens, UniProt P37288); assay: FLIPR functional screen; assay type: cell-based; conditions: antagonist mode
T37 construct: Millipore

[38] = target: T38, V1B (Homo sapiens, UniProt P47901); assay: FLIPR functional screen; assay type: cell-based; conditions: antagonist mode
T38 construct: Millipore
T38 sequence (P47901 whole entry): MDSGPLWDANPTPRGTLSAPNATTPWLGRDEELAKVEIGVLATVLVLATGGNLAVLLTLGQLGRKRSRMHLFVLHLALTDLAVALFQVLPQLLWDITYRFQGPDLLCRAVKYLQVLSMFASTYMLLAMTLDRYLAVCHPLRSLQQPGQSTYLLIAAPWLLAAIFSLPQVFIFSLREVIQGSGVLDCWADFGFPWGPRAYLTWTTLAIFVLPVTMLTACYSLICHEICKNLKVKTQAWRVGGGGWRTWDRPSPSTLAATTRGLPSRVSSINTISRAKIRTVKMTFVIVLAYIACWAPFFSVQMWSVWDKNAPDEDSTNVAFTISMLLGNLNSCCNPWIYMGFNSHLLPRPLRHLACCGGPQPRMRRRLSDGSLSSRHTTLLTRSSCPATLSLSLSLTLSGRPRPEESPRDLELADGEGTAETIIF

T2 sequence (Q9Y271 whole entry): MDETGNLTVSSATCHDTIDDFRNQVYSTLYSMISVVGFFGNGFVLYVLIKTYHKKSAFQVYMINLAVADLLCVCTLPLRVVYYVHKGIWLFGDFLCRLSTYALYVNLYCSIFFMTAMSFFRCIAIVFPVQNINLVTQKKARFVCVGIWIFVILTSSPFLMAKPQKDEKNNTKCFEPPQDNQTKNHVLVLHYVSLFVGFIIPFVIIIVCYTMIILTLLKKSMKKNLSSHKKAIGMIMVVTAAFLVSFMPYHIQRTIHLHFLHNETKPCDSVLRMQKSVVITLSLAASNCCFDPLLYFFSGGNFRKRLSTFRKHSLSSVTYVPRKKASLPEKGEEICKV
T1 sequence (Q15722 whole entry): as the sequence (Q15722 whole entry, species assumed) above

CCN1C(=O)N2Cc3cc(OC)cc(OC)c3[C@@H](C)C=C2C12CCN(Cc1cccn1C)CC2 [ER-819924-01]
% INHIBITION ([1]; CONC. 0.1 μm): −12%
% INHIBITION ([1]; CONC. 1 μm): −11%
% INHIBITION ([2]; CONC. 0.1 μm): −1%
% INHIBITION ([2]; CONC. 1 μm): −5%
% INHIBITION ([3]; CONC. 0.1 μm): 8%
% INHIBITION ([3]; CONC. 1 μm): −5%
% INHIBITION ([4]; CONC. 0.1 μm): 21%
% INHIBITION ([4]; CONC. 1 μm): 71%
binding selectivity for EP4 over other EP/prostanoid/leukotriene receptors ([4]; competitive radioligand binding assay): selectively bind to EP4
inhibition at 1 µM [5]: -1.6%
inhibition at 1 µM [6]: 3%
inhibition at 1 µM [7]: 10.6%
inhibition at 1 µM [8]: 17.6%
inhibition at 1 µM [9]: 7.1%
inhibition at 1 µM [10]: 0.6%
inhibition at 1 µM [11]: 6.2%
inhibition at 1 µM [12]: 1.7%
inhibition at 1 µM [13]: 2.2%
inhibition at 1 µM [14]: 6.2%
inhibition at 1 µM [15]: -8.2%
inhibition at 1 µM [16]: -5.6%
inhibition at 1 µM [17]: -4.9%
inhibition at 1 µM [18]: -3.2%
inhibition at 1 µM [19]: -11.8%
inhibition at 1 µM [20]: -2%
inhibition at 1 µM [21]: 4.2%
inhibition at 1 µM [22]: 6.2%
inhibition at 1 µM [23]: 9.1%
inhibition at 1 µM [24]: 8.1%
inhibition at 1 µM [25]: 8.6%
inhibition at 1 µM [26]: 10.6%
inhibition at 1 µM [27]: 35.8%
inhibition at 1 µM [28]: 10.6%
inhibition at 1 µM [29]: 1.5%
inhibition at 1 µM [30]: 10.5%
inhibition at 1 µM [31]: 2.9%
inhibition at 1 µM [32]: 1%
inhibition at 1 µM [33]: 8.8%
inhibition at 1 µM [34]: 5.4%
inhibition at 1 µM [35]: -2.8%
inhibition at 1 µM [36]: 0.1%
inhibition at 1 µM [37]: -3.9%
inhibition at 1 µM [38]: 4.7%
